US10266520B2, “Bisamidinium-based inhibitors for the treatment of myotonic dystrophy” (The Board of Trustees of the University of Illinois, priority 2014, dated 2019)

Key:
HeLa cells = assay: SRB cytotoxicity assay; type: cell-based
Description: This finding indicates an advantage of the bisamidinium-based ligands over the acridine-containing ligands.
ITC, EMSA, confocal microscopy, IR splicing, and the reversal of rough-eye phenotype assays were conducted as previously described (Wong et al., J. Am. Chem. Soc. 2014, 136, 6355-6361). The cytotoxicity of 2a was accessed using a published protocol (Vichai et al., Sulforhodamine B colorimetric assay for cytotoxicity screening, Nat. Protoc. 2006, 1, 1112-1116).

(CUG)12 = assay: Isothermal titration calorimetry (ITC) binding to (CUG)12; conditions: 25° C., read-out: KD, binding affinity toward (CUG)12
Description: The alkyne and azide moieties were chosen because of their small size, excellent stability, and ultimate bioorthogonality. […] This finding enables the rapid development of a wide range of functional derivatives of ligand 1a using the [3+2] alkyne-azide cycloaddition (‘click reaction’) of 1b and 1c.
The ligand stock solution (10 mM in water). MOPS buffer (100 mM; pH 7.0±0.2), and NaCl (5000 mM) were prepared. The ligand solution (1 mL) contained of 0.5 mM of ligand, 20 mM of MOPS buffer, and 150 mM of NaCl. The RNA solution (2 mL) contained 0.02 mM of RNA, 20 mM of MOPS buffer, and 150 mM of NaCl. The resulting RNA solution was heated in a water bath at 90° C. for 5 min, then allowed to cool to room temperature for 2 h.
ITC measurements were performed at 25° C. on a MicroCal VP-ITC calorimeter (Northampton, Mass.). A typical experiment consisted of titrating 10 μL of a ligand solution (500 μM) from a 250 μL syringe (stirred at 300 rpm) into a sample cell containing 1.42 mL of a RNA solution (10 μM) with total 28 injections. The initial delay prior to the first injection was 60 s. The duration of each injection was 24 s and the delay between injections was 300 s. […] Binding parameters such as the dissociation constant (KD), enthalpy change (ΔH), and entropy change (ΔS) were determined by fitting the experimental binding isotherms with various model. […]

Row | SMILES | HeLa cell death (HeLa cells; 100 μM, 96 h) | cellular toxicity (HeLa cells; lower concentrations (below 100 μM)) | Kd ((CUG)12) [µM]
1 | N=C(NCCCCNc1nc(N)nc(N)n1)c1ccc(C(=N)NCCCCNc2nc(N)nc(NCCCn3cc(CNc4nc(N)nc(NCCCCNC(=N)c5ccc(C(=N)NCCCCNc6nc(N)nc(N)n6)cc5)n4)nn3)n2)cc1 [Compound 2a] | ca. 10% | negligible cellular toxicity | 
2 | N=C(NCCCCNc1nc(N)nc(N)n1)c1ccc(C(=N)NCCCCNc2nc(N)nc(N)n2)cc1 [Compound 1a] |  |  | 8
